Data on two compounds can be found in patent publication US20220105135A1, “METHODS AND COMPOSITIONS FOR THE MODULATION OF OPIOID SIGNALING IN THE TUMOR MICROENVIRONMENT” (The Broad Institute, Inc., priority 2020, published 2022).

For one series, the system named is CD8+ T cells. The series can be described thus: In vitro stimulation of CD8+ T cells with MENK peptide. The series is classed as cell-based. Conditions: for coinhibitory receptors / checkpoints expression on T cells: MENK stimulation. From the text:
FIG. 55A. […] FIG. 55B. […] FIG. 55C. […] FIG. 55D.
Applicants determined the effect of PENK-OGFR signaling on tumor growth and anti-tumor immunity.

The next series deals with bacteria. Details: dose or concentration left out as unconfirmed. Conditions: cited from earlier work.
A further series concerns the target chymotrypsin (Bos taurus, UniProt P00766). Conditions: cited from earlier work.
For the next series, the target named is aminopeptidase A (Homo sapiens, UniProt Q07075). Conditions: cited from earlier work.
aminopeptidase A, sequence (Q07075 whole entry, species assumed): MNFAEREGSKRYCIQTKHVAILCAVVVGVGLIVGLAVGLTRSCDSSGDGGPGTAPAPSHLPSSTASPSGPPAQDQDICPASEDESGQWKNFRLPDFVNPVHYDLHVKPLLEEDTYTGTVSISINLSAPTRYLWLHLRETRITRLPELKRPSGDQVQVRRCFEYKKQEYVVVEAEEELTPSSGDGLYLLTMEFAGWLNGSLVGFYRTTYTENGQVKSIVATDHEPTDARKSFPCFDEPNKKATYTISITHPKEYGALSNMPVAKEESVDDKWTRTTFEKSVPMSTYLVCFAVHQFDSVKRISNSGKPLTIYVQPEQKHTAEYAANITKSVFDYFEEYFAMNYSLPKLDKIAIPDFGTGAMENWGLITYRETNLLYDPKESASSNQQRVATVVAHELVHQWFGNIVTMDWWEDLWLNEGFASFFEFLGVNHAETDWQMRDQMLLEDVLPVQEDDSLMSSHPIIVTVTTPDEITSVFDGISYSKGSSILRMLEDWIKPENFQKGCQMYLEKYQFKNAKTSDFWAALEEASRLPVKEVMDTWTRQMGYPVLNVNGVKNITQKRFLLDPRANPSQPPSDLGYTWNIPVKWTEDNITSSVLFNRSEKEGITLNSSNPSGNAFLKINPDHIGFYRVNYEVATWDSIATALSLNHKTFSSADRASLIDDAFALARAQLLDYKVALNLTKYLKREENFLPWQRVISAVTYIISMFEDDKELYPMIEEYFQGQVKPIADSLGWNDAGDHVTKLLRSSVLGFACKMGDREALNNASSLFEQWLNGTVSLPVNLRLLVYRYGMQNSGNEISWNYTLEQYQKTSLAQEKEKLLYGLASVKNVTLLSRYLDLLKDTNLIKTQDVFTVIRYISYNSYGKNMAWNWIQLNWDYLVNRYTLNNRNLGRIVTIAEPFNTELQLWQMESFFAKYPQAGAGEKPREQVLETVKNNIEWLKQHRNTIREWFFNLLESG
The target of another series is trypsin (Homo sapiens, UniProt P07477). The note with it: cited from earlier work.
Another series deals with aminopeptidase B (Homo sapiens, UniProt Q9H4A4). Conditions: cited from earlier work.
aminopeptidase B, sequence (Q9H4A4 whole entry, species assumed): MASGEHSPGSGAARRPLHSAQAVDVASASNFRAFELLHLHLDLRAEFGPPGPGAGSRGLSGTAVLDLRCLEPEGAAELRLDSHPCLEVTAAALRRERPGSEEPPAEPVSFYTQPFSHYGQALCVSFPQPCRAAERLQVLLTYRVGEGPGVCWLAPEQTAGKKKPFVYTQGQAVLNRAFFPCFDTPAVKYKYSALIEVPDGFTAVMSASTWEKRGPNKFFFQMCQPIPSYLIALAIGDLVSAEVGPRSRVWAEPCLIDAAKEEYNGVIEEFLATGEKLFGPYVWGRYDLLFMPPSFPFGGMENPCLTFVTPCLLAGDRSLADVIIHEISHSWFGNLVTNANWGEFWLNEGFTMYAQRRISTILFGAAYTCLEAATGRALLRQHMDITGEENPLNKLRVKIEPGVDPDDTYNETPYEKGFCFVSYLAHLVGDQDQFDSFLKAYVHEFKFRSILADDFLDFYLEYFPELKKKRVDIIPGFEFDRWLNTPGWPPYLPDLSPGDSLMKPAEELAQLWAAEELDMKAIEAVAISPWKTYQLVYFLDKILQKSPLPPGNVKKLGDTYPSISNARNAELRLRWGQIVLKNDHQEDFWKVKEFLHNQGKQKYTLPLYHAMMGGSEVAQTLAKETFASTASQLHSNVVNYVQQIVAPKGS
In the next series the target is T1, papain (Carica papaya, UniProt P00784).
T1 sequence (P00784 134-345): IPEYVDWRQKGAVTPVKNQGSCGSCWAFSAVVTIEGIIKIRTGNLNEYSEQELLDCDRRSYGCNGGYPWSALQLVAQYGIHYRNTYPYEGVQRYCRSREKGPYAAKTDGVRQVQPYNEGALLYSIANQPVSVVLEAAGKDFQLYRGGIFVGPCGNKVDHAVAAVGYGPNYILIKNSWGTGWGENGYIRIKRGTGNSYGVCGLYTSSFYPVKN
The note with it: cited from earlier work.

In another series the target is pepsin (Homo sapiens, UniProt P0DJD8). The note with it: cited from earlier work.
pepsin, sequence (P0DJD8 63-388): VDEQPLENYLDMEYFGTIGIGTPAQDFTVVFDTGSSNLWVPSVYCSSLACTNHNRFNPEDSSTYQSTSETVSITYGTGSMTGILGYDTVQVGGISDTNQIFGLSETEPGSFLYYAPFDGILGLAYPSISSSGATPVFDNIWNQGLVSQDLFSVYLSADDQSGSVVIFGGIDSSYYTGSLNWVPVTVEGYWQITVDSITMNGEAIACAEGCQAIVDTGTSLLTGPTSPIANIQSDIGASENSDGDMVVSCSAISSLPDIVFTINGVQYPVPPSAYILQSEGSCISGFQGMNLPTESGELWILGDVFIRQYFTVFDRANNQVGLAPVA
In a further series the target is T2, thermolysin (Bacillus thermoproteolyticus, UniProt P00800).
T2 sequence (P00800 233-548): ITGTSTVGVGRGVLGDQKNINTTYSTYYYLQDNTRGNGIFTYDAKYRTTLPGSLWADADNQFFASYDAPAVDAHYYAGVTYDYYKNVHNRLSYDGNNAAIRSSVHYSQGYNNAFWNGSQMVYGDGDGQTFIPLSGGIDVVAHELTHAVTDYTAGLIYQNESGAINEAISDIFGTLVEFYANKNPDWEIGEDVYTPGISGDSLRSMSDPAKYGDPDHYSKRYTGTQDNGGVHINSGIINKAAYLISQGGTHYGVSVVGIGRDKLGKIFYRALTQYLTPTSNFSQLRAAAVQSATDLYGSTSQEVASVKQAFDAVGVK
Conditions: cited from earlier work.

The subject of another series is fungi. The note with it: at 100 pg/ml; cited from earlier work.
For the next series, the system named is leucine aminopeptidase. The note with it: cited from earlier work.
The test system of another series is elastase. The note with it: cited from earlier work.
The conditions of series [1]: intraperitoneal injection of 300 mg/kg to mice; cited from earlier work.
Where [2] appears, read: MENK vs control, in vitro, listed as Menk.

On to “[Met]enkephalin (YGGFM) [MENK, enkephalin peptide produced by proteolytic cleavage of PENK]”, for which the “coinhibitory receptors / checkpoints expression on T cells” value in the series on CD8+ T cells is listed as “increases”. Besides, in the series on CD8+ T cells (listed as Menk), the “coinhibitory receptors / checkpoints expression on T cells” value is reported as “increased expression of several checkpoints”. For the same compound, in the series with CD8+ T cells (MENK vs control, in vitro), the CD160 entry is “increased”, the IL-2 result is on record as “decreased”, the PD1 entry was “increased” and the “PD1+ TIM3+CD8+ T cells” value is “increased”. In addition, in the series with CD8+ T cells (MENK vs control, in vitro), the TIM3 entry is “increased” and the proliferation entry was “decreased”. In the series with CD8+ T cells (setting [2]), the IL-2 entry is recorded as “dampened” and the proliferation result was “some reduction”.
Take `CC(C)C[C@H](NC(=O)[C@@H](O)[C@H](N)Cc1ccccc1)C(=O)O` [Bestatin, ubenimex (bestatin)]: the antibacterial activity entry with bacteria is recorded as “no antibacterial”. For the same compound, the inhibition of chymotrypsin result at chymotrypsin is recorded as “does not show any inhibition”. Also, the “inhibition of aminopeptidase A” value at aminopeptidase A is “does not show any inhibition”. Moreover, the inhibition of trypsin result at trypsin was “does not show any inhibition”. For the same compound, the “inhibition of aminopeptidase B” value at aminopeptidase B is “specific inhibitor”. Moreover, at papain, the inhibition of papain entry was “does not show any inhibition”. In addition, the inhibition of pepsin result at pepsin is recorded as “does not show any inhibition”. Moreover, the inhibition of thermolysin result at thermolysin is listed as “does not show any inhibition”. Besides, the antifungal activity entry in the series with fungi is listed as “no antifungal”. In addition, in the series on leucine aminopeptidase, the “inhibition of leucine aminopeptidase” value is “specific inhibitor”. Besides, the inhibition of elastase entry in the series with elastase was “does not show any inhibition”. Also, the “toxicity (death)” value in series [1] was “no death”.
